Test results: US9939427B2, “Method for evaluating the scent performance of perfumes or perfume mixtures” (Symrise AG, priority 2013, dated 2018)
Entries after “also recorded” stand apart in the source; their conditions may differ.

How the values were obtained:
Format in all cases: cell-based
[1] = test system: HEK293 cells transfected with all cofactors and pCI plasmids without ORs; experiment: Ca-imaging of control HEK293 cells without OR; conditions: odorant 200 μM, three times of measuring (Table 4, FIG. 5)
Method in brief: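 HEK293 cells transfected by calcium phosphate with empty pCI plus Gα15, RTP1, Myr-Ric8A, HSC70 and mCherry, incubated 48–60 h, then loaded with 3 µM Fura-2/AM for 30–45 min. Odorants in Ringer's applied as mixtures at 200 µM each or singly at 100–200 µM, with 0.25 mM ATP at the end. Ca2+ followed as 340/380 nm ratio every 4 s; responses as ΔF/F0, judged by timing, amplitude above twice baseline noise and curve shape.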

OR4K5 = molecular target: T1, OR4K5 (Homo sapiens, UniProt Q8NGD3); experiment: Ca-imaging of OR4K5-transfected HEK293 cells; set-up: key to OR4K5 responded to odorant: ▪: 18 olfactory receptors responded to 32 odorants in related with specific anosmia
T1 construct: specific primers, which amplify the complete open reading frame; expressed in transfected cells; host or cells: HEK293
T1 sequence (Q8NGD3 1-323): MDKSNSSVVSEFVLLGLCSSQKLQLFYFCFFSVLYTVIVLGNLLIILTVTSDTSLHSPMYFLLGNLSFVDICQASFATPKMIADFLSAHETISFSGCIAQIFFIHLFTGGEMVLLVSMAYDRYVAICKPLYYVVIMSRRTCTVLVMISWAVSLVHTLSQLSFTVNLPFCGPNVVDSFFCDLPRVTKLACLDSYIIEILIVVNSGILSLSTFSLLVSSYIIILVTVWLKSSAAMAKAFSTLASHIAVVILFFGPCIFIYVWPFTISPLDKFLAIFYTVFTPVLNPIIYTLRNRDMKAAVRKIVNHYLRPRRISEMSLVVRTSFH
Protocol: (§1) HEK293 cells were cultivated in Petri dishes (Ø35 mm) as previously described (Benbernou et al. 2007). We grow up HEK293 cells in culture medium containing standard DMEM with 10% heat-inactivated fetal bovine serum, 2 mM L-glutamine, 100 units/ml penicillin, and 100 units/ml streptomycin in a humidified atmosphere (37° C., 5% CO2). After 2-3 days, the transfection process was carried out, whereby the cell culture was 70-80% confluent. The calciumphosphate method was applied to transfect DNA plasmid transiently in HEK293 cells in case of Ca-imaging method.
(§2) Calcium cations and phosphate anions created crystal precipitations coupled with DNA which could invade into the cells through endocytosis. Cells were transiently transfected with plasmid DNA which consists of pCI expression vector and PCR-amplified full-length cDNA of olfactory receptors candidates, and also Gα15, RTP1, Myr-Ric8A, HSC70, and m-Cherry as cofactors. The precipitation could be created after 15-20 min, with dropping the transfection solution on HEK293 cells. Before measuring by Ca-imaging cells were incubated 48-60 hours at 370 C, 5% CO2. […]
Calcium imaging of the transfected HEK293 cells was done by using chambers determinate an inverted microscope (Olympus; IX70) using a 10× objective (CPIanFL N Olympus). Fluorescence emission was determined every 4 s by using a CCD camera (Charge Coupled Device, C9100 Hamamatsu). […] Odorants were manually monitored to drop each 4-5 s to transfected cells. […]
In experiments, Fura-2 Acetoxymethylester (Fura-2/AM) was applied. […] According to this feature, the analysis of 340/380 nm excitation ratio for Fura-2 allows to quantify intracellular calcium levels. […]
Ringer's solution was used for washing cells between measuring by two different odorants. Positive response was determined by the timing of the response, the strength of the response (more than twofold higher than the noise amplitude of the baseline), and the shape of the response curve (sharp rise in curve with gradual recovery). […]

OR2L8 [2] = molecular target: T2, OR2L8 (Homo sapiens, UniProt Q8NGY9); experiment: CRE-luciferase assay, OR2L8 in HANA3A cells; conditions: 50 μM, 100 μM and 150 μM; normalized to DMSO
T2 construct: specific primers, which amplify the complete open reading frame; expressed in transfected cells; host or cells: HEK293
T2 sequence (Q8NGY9 1-312): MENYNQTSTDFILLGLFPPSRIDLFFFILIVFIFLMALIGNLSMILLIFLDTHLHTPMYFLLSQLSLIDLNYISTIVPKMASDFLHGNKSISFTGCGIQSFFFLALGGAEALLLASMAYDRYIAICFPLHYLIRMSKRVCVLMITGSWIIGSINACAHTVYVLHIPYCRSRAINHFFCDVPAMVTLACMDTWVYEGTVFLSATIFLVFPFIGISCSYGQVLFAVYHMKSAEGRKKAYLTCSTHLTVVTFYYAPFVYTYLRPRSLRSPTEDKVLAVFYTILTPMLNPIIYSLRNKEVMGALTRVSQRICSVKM
Protocol: as §2, with “CO2. Cationic liposome-mediated transfection method was applied to transfect DNA plasmid transiently in HANA3A cells in case of CRE-Luciferase and CRE-SEAP assays.” for “CO2.”
ORs responded by Ca-imaging with seven separate odorant mixtures formed from 66 odorants. […] Transfected HANA3A cells on poly-D-lysine-coated 96 well plates are ready for stimulation after 24 h. […] Measuring by plate reader (Luminometer). • 6. […] Measuring by plate reader (Luminometer). • 8. According to manufacturer's protocols for measuring luciferase and renilla activities, calculate normalized luciferase activity with using the formula (Ln-Lmin)/(Lmax-Lmin), where Ln is the luminescence of firefly in response to the odorant, L min is the minimum luciferase value on a plate, and L max is the maximum luciferase value on plate. […]

OR2L8 [3] = molecular target: T2, OR2L8; experiment: Ca-imaging of OR2L8-transfected HEK293 cells; set-up: key to OR2L8 responded to odorant: ▪: 18 olfactory receptors responded to 32 odorants in related with specific anosmia
Protocol: as §1
Calcium cations and phosphate anions created crystal precipitations coupled with DNA which could invade into the cells through endocytosis. Cells were transiently transfected with plasmid DNA which consists of pCI expression vector and PCR-amplified full-length cDNA of olfactory receptors candidates, and also Gα15, RTP1, Myr-Ric8A, HSC70, and m-Cherry as cofactors. The precipitation could be created after 15-20 min, with dropping the transfection solution on HEK293 cells. Before measuring by Ca-imaging cells were incubated 48-60 hours at 370 C, 5% CO2. Cationic liposome-mediated transfection method was applied to transfect DNA plasmid transiently in HANA3A cells in case of CRE-Luciferase and CRE-SEAP assays.
Calcium imaging of the transfected HEK293 cells was done by using chambers determinate an inverted microscope (Olympus; IX70) using a 10× objective (CPIanFL N Olympus). Fluorescence emission was determined every 4 s by using a CCD camera (Charge Coupled Device, C9100 Hamamatsu). The capillary tube which was responsible to supply odorants was generated closely above the cells. The columns filled with odorants, DMSO and ATP. Odorants were manually monitored to drop each 4-5 s to transfected cells. Solutions with drop wise form spread on HEK293 cells in 35 mm dishes.
In experiments, Fura-2 Acetoxymethylester (Fura-2/AM) was applied. The non-polar Fura2/AM is fluorescent but not yet calcium-sensitive. Once diffuses into cell plasma, Fura-2/AM is hydrolyzed to Fura-2 which is calcium-sensitive and functions as Ca2+ chelator. Regardless of the presence of calcium, Fura-2 emits at the wavelength of 510 nm. Once Fura-2 binds to free intracellular Ca2+ in cell plasma, its ratio of excitation at wavelengths of 340 nm and 380 nm is changed and correlated to the amount of intracellular Ca2+. According to this feature, the analysis of 340/380 nm excitation ratio for Fura-2 allows to quantify intracellular calcium levels.
In preparation for Ca-imaging measurements, transfected HEK293 cells were added 3 it Fura2/AM (3 μM) and incubated 30-45 min at 370 C, 5% CO2. After this step, experiments were carried out in a dark condition (Fura-2 is light-sensitive). After the incubation, medium of cell culture was replaced with 2 ml Ringer's solution.
Odorants were freshly prepared with DMSO as 1 M stocks solutions. Six mixtures (200 μM each chemical) were applied to cells sequentially (20 s each mixture/30 s Ringer). Those ORs tested with single odorants that had generated a response to odorant mixture group previously. Odorants were prepared in 100-200 μM concentration.
Ringer's solution was used for washing cells between measuring by two different odorants. Positive response was determined by the timing of the response, the strength of the response (more than twofold higher than the noise amplitude of the baseline), and the shape of the response curve (sharp rise in curve with gradual recovery). The typical shape of response curves was established by observing responses to repeated stimulation with 200 μM of odorants. After testing with single odorants at 100 μM, stimulating odorants were often retested at 200 μM concentrations. To confirm the result of every receptor that produced a significant response curves, the experiment was repeated for twelve times. Finally, cells were exposed to ATP (0.25 mM) which could activate P2Y receptor channel and induce Ca2+ influx into cells. […]

OR4K5 responded to odorant (OR4K5; HEK293 cells, individual odorant 200 μM, significant response p<0.05): ▪
Response of OR4K5 to odorant, in words (OR4K5; single odorants 200 μM): detected
CRE-luciferase (cAMP assay) response of OR2L8 (OR2L8 [2]): weak response
OR2L8 responded to odorant (OR2L8 [3]; Ca-imaging, HEK293 cells, individual odorant 200 μM, significant response p<0.05): ▪
Number of cell responses, Experiment (OR2L8) (OR2L8 [3]; odorant 200 μM, approximately 2000 transfected cells in three times of measuring (Table 4, FIG. 5)): 10
Substance: Ysamber K [Yasamber K]
Number of cell responses, Control [1]: 2
Response of OR2L8 to odorant, in words (OR2L8 [3]; Ca-imaging, single odorants 200 μM): Ca2+ concentration increased; also recorded: detected
